One molecule from paper PMC5227004, “Native ESI Mass Spectrometry Can Help to Avoid Wrong Interpretations from Isothermal Titration Calorimetry in Difficult Situations” (Journal of the American Society for Mass Spectrometry, 2016) can be followed below.

Assay [1] concerns the target T1, DNA-polymerase processivity factor (β-ring) from Escherichia coli (Escherichia coli, UniProt P0A988). The experiment in a line: Isothermal titration calorimetry (ITC) of peptide binding to the E. coli β-ring. The conditions noted are these: βE.coli. For orientation: ITC needs no label: the signal is the heat of the interaction.
Protocol: We used an iTC200 from Microcal (now Microcal-Malvern, UK) operated in the high-gain mode. […] In short, the β -rings were initially in the cell at concentrations ranging from 20 to 60 μM and the peptides were in the syringe at concentrations ranging from 200 to 600 μM. The buffer was Hepes 10 mM, pH 7.4, supplemented with NaCl 150 mM and EDTA 3 mM. Experiments were performed at different temperatures from 15 to 34 °C.
The processing of the ITC data was first performed with the same model as the one used for ESI-MS (one specific binding site per monomer). […] The advantage of this still unusual method is of fitting several titration curves with a minimum set of free parameters. All K d values obtained by ITC were corrected for 22.5 °C, which was the incubation temperature used in ESI-MS experiments. This was performed by using the Van’t Hoff equation: ∂ ln K d/∂T = − ΔH/(RT ^2), where ΔH is the variation of enthalpy during complex formation and R = 8.314 J mol^−1 K^−1 the gas constant. Note that such a correction is quite justified for K d values obtained by ITC since the primary output from ITC is precisely the enthalpic term ΔH governing the evolution of K d with the temperature.
This competition model requires determining a fixed fraction f 1 of the protein monomers binding their ligand according to a dissociation constant K d1 and an enthalpy variation ΔH 1, and a fixed fraction f 2 = 1 − f 1 binding their ligand according to a dissociation constant K d2 and an enthalpy variation ΔH 2 (we consider K d2 < K d1).
Assay [2] has as its target T1, DNA-polymerase processivity factor (β-ring) from Escherichia coli. The assay can be described thus: Native ESI-MS titration of peptide binding to the E. coli β-ring. The conditions noted are these: βE.coli; processing taking into account separately the species R3.
Where [3] appears, read: model with two competing modes of binding on the same site.

T1 sequence (P0A988 whole entry, looked up): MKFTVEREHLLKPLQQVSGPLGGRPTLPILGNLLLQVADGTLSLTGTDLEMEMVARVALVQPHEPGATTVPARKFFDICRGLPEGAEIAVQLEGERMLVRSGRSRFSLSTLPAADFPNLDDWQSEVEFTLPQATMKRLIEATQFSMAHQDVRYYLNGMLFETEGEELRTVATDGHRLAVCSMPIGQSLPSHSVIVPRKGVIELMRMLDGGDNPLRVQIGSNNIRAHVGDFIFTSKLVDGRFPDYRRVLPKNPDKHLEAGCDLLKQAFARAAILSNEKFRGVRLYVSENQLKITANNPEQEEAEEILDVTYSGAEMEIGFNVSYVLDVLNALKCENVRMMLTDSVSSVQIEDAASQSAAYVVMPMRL

On to `CC(=O)N[C@@H](CCC(N)=O)C(=O)N[C@@H](CC(C)C)C(=O)N[C@@H](CC(=O)O)C(=O)N[C@@H](CC(C)C)C(=O)N[C@@H](Cc1ccccc1)C(=O)O` [P6], for which, in assay [1] (setting [3]), the “ΔH1 (ITC), weaker binding mode” value was “≈ 1 kcal mol^−1” and the “ΔH2 (ITC), stronger binding mode” value is on record as “≈ –12 kcal mol^−1”. In addition, the “ΔH (ITC), one binding mode” value in assay [1] (simple model with one binding mode, at 25 °C) is given as “≈ –11.8 ± 0.2 kcal mol^−1”. In assay [2], the “P, probability of GPD (ESI-MS, Equations 4)” value is 0.0528.
